Results from patent US10851069B2, “Compositions of crystallized hydrophobic compounds and methods of making and using same” (Massachusetts Institute of Technology, priority 2016, dated 2020).

Tested on: non-human primates (cynomolgus macaques)
Test: Crystalline GW2580 alginate capsules (0.5 and 1.5 mm) implanted IP and SC in non-human primates, foreign body response
Assay type: in vivo
Settings: for macrophage responses on retrieved capsules (FACS): all cases of remaining drug
Experimental: Lead candidates identified in these studies, like GW2580, were subsequently tested in a non-human primate (NHP) model in which capsules (0.5 and 1.5 mm) were implanted in both the intraperitoneal (IP) and subcutaneous (SC) spaces (FIGS. 12 and 13C). […] IP space (lavage) drug concentrations were traced by LCMS fort each capsule type following retrieval time points, and found to drop from only 2-3 ng/ml at 4 weeks post-implantation to below detectable limit (0.5 ng/ml) beyond. […] And while 0.5 mm drug-loaded capsules became clumped at 3 months, they were not extensively embedded into surrounding omental tissue until 6 months (FIGS. 12, 23B and 23C).
For non-human primate (NHP) procedures, buprenorphine (0.01-0.03 mg/kg) was administered as a pre-operative analgesic. NHPs were then sedated using an intramuscular (IM) injection of ketamine (10 mg/kg) with an addition of midazolam as dictated by DCM vet staff if needed for additional sedation. Animals were maintained on a circulating warm water blanket and covered with a towel during the procedure to maintain body temperature. Either 0.5 or 1.5 mm diameter (drug-loaded) SLG20 spheres were implanted by minimally invasive laparoscopic surgery, and injected into the dorsal (back) regions of 4 non-human primates (cynomolgus macaques) using 18 and 12 gauge custom-manufactured (Harvard Apparatus) sterile stainless steel needles, with slip tip syringes in order to prevent shearing of our biomaterial upon injection. Needles were inserted tangentially to the backs of the NHPs, and were slid (tunneled) approximately 1-2 cm away from the initial injection point, in order to try to separate the injection from that of the site of eventual material response. Spheres (0.5 and 1.5 mm diameter) were injected into 4 total spots on the flank of 4 of our non-human primates: two spots on the left flank and two on the right, for 0.5 mm and 1.5 mm diameter sphere implants, respectively.
For non-human primate intraperitoneal and subcutaneous retrievals, similar to when material was implanted, NHPs were once again given buprenorphine (0.01-0.03 mg/kg) as a pre-operative analgesic, and sedated using an IM injection of ketamine (10 mg/kg), with midazolam as dictated by DCM vet staff if needed for additional sedation. Animals were once again maintained on a circulating warm water blanket and covered with a towel during the procedure to maintain body temperature. 8 mm diameter biopsy punches were then used to sample the entire skin and subcutaneous space at 2 and later at 4 weeks post-implantation. Following biopsy punches, the retrieval site was closed with 3-0 nylon in a simple-interrupted pattern and VetBond (tissue glue). For IP retrievals, minimally invasive laparoscopic surgery was also used (similar to implant procedures). […]

Structure (SMILES): COc1ccc(COc2ccc(Cc3cnc(N)nc3N)cc2OC)cc1 [GW2580, 5-[[3-Methoxy-4-[(4-methoxyphenyl)methoxy]phenyl]methyl]-2,4-pyrimidinediamine]
- sphere embedding and collagen deposition (H&E and Masson's Trichrome) (0.5 and 1.5 mm drug-loaded capsules, excised implant-site tissue): lack of sphere embedding and collagen deposition
- fibrosis development (phase contrast) (crystalline, 0.5 and 1.5 mm capsules, 2 and 4 weeks, IP and SC): prevented fibrosis development
- macrophage responses on retrieved capsules (FACS) (crystalline, 0.5 and 1.5 mm capsules): significant inhibition of macrophage responses
- macrophage responses on retrieved capsules (FACS) (crystalline, 0.5 and 1.5 mm capsules, listed as GW): reduced multiple orders of magnitude
